Key:
Experiment in all cases: in vitro susceptibility, MIC by mini broth dilution
Assay type in all cases: cell-based
[1] = tested on: Staphylococcus aureus CVCC26003; settings: strain CVCC26003
Procedure, shortened: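 MICs were determined by mini broth dilution under NCCLS standards in CAMHB, using revived S. aureus CVCC26003 subcultured 20 h at 35° C. Compounds were two-fold serially diluted in DMSO across 11 wells, with duplicate rows. Bacterial suspension was diluted 1:200 in medium before inoculation.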

[2] = tested on: Actinobacillus pleuropneumoniae CVCC262; settings: strain CVCC262
Procedure, shortened: (§1)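 MICs determined by mini broth dilution per NCCLS (now CLSI) standards. Strains revived from −20° C, subcultured twice on solid medium at 35° C for 20 h; compounds two-fold serially diluted in DMSO over 11 gradients, duplicate rows, bacterial suspension diluted 1:200 in liquid medium.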

Haemophilus parasuis = tested on: Haemophilus parasuis
Procedure, shortened: as §1

[3] = tested on: Pasteurella multocida CVCC399; settings: strain CVCC399
Procedure, shortened: as §1

[4] = tested on: Streptococcus equines CVCC556; settings: strain CVCC556
Procedure, shortened: as §1

Row | Compound | MIC values, Staphylococcus aureus CVCC26003 [1] [ug/mi] | MIC values, Actinobacillus pleuropneumoniae CVCC262 [2] | MIC values, Haemophilus parasuis (Haemophilus parasuis) [ug/mi] | MIC values, Pasteurella multocida CVCC399 [3] [ug/mi] | MIC values, Streptococcus equines CVCC556 [4] [ug/mi]
1 | CCCCNC[C@]1(O)[C@H](C)O[C@@H](O[C@H]2[C@H](C)[C@@H](O[C@@H]3O[C@H](C)C[C@H](N(C)C)[C@H]3O)[C@](C)(O)C[C@@H](C)N(CCC)C[C@H](C)[C@@H](O)[C@](C)(O)[C@@H](CC)OC(=O)[C@@H]2C)C[C@@]1(C)OC [syzx-102] | 0.25 | 0.25 ug/mi | 0.25 | 0.5 | 0.25
2 | CCCN1C[C@H](C)[C@@H](O)[C@](C)(O)[C@@H](CC)OC(=O)[C@H](C)[C@@H](O[C@H]2C[C@@](C)(OC)[C@](O)(CN(CC)CC)[C@H](C)O2)[C@H](C)[C@@H](O[C@@H]2O[C@H](C)C[C@H](N(C)C)[C@H]2O)[C@](C)(O)C[C@H]1C [syzx-103] | 0.25 | 0,25 ug/mi | 0.25 | 1 | 0.25
3 | CCCN1C[C@H](C)[C@@H](O)[C@](C)(O)[C@@H](CC)OC(=O)[C@H](C)[C@@H](O[C@H]2C[C@@](C)(OC)[C@](O)(CNc3ccccc3)[C@H](C)O2)[C@H](C)[C@@H](O[C@@H]2O[C@H](C)C[C@H](N(C)C)[C@H]2O)[C@](C)(O)C[C@H]1C [syzx-104] | 0.25 | 0.25 ug/mi | 0.25 | 1 | 0.25
4 | CCCN1C[C@H](C)[C@@H](O)[C@](C)(O)[C@@H](CC)OC(=O)[C@H](C)[C@@H](O[C@H]2C[C@@](C)(OC)[C@](O)(CNCC3(C)CC(N)CC(C)(C)C3)[C@H](C)O2)[C@H](C)[C@@H](O[C@@H]2O[C@H](C)C[C@H](N(C)C)[C@H]2O)[C@](C)(O)C[C@H]1C (stereo partly shown) [syzx-106] | 2 | 0.5 ug/mi | 0.5 | 2 | 0.25
5 | CCCN1C[C@H](C)[C@@H](O)[C@](C)(O)[C@@H](CC)OC(=O)[C@H](C)[C@@H](O[C@H]2C[C@@](C)(OC)[C@](O)(CNCc3ccc(F)cc3)[C@H](C)O2)[C@H](C)[C@@H](O[C@@H]2O[C@H](C)C[C@H](N(C)C)[C@H]2O)[C@](C)(O)C[C@H]1C [syzx-108] | 0.25 | 0.25 ug/mi | 0.25 | 1 | 0.25
6 | CCCN1CC(C)C(O)C(C)(O)C(CC)OC(=O)C(C)C(OC2CC(C)(OC)C(O)(Cn3ccnn3)C(C)O2)C(C)C(OC2OC(C)CC(N(C)C)C2O)C(C)(O)CC1C (stereo not shown) [syzx-109] | 0.25 | 0.25 ug/mi | 0.25 | 1 | 0.25
7 | CCCN1C[C@H](C)[C@@H](O)[C@](C)(O)[C@@H](CC)OC(=O)[C@H](C)[C@@H](O[C@H]2C[C@@](C)(OC)[C@](O)(CNCC)[C@H](C)O2)[C@H](C)[C@@H](O[C@@H]2O[C@H](C)C[C@H](N(C)C)[C@H]2O)[C@](C)(O)C[C@H]1C [syzx-110] | 0.25 | 0.25 ug/mi | 0.25 | 0.5 | 0.25
8 | CCCN1C[C@H](C)[C@@H](O)[C@](C)(O)[C@@H](CC)OC(=O)[C@H](C)[C@@H](O[C@H]2C[C@@](C)(OC)[C@](O)(CNC(C)C)[C@H](C)O2)[C@H](C)[C@@H](O[C@@H]2O[C@H](C)C[C@H](N(C)C)[C@H]2O)[C@](C)(O)C[C@H]1C [syzx-111] | 0.25 | 0.25 ug/mi | 0.25 | 0.5 | 0.25
9 | CCCN1C[C@H](C)[C@@H](O)[C@](C)(O)[C@@H](CC)OC(=O)[C@H](C)[C@@H](O[C@H]2C[C@@](C)(OC)[C@](O)(CNCC(C)C)[C@H](C)O2)[C@H](C)[C@@H](O[C@@H]2O[C@H](C)C[C@H](N(C)C)[C@H]2O)[C@](C)(O)C[C@H]1C [syzx-112] | 0.25 | 0.25 ug/mi | 0.25 | 0.5 | 0.25

Continued, values first:

Row | MIC values, Staphylococcus aureus CVCC26003 [1] [ug/mi] | MIC values, Actinobacillus pleuropneumoniae CVCC262 [2] | MIC values, Haemophilus parasuis (Haemophilus parasuis) [ug/mi] | MIC values, Pasteurella multocida CVCC399 [3] [ug/mi] | MIC values, Streptococcus equines CVCC556 [4] [ug/mi] | Compound
10 | 1 | 0.5 ug/mi | 0.5 | 2 | 0.25 | CCC1OC(=O)C(C)C(OC2CC(C)(OC)C(O)(CNc3cc(C)ccc3F)C(C)O2)C(C)C(OC2OC(C)CC(N(C)C)C2O)C(C)(O)CC(C)NCC(C)C(O)C1(C)O [syzx-96, (2R,3S,4R,5S,8R,10R,11R,12S,13S,14R)-13-[(2,6-dideoxy-3-C-methyl-3-O-methyl-4-C-[(2-fluoro-5-methylphenyl-amino)-methyl]-α-L-ribopyranosyl)oxy]-2-ethyl-3,4,10-trihydroxy-3,5,8,10,12,14-hexamethyl-11-[[3,4,6-trideoxy-3-(dimethylamino)-β-D-xylo-hexopyranosy]oxy]-1-oxa-7-azacyclopentadecan-15-one]
11 | 1 | 128 ug/mi | 1 | 4 | 0.5 | CC[C@H]1OC(=O)[C@H](C)[C@@H](O[C@H]2C[C@@](C)(OC)[C@](O)(CNc3ccc(Cl)cc3C)[C@H](C)O2)[C@H](C)[C@@H](O[C@@H]2O[C@H](C)C[C@H](N(C)C)[C@H]2O)[C@](C)(O)C[C@@H](C)NC[C@H](C)[C@@H](O)[C@]1(C)O [syzx-97, (2R,3S,4R,5S,8R,10R,11R,12S,13S,14R)-13-[(2,6-dideoxy-3-C-methyl-3-O-methyl-4-C-[(2-methyl-4-chloro-phenyl-amino)-methyl]-α-L-ribopyranosyl)oxy]-2-ethyl-3,4,10-trihydroxy-3,5,8,10,12,14-hexamethyl-11-[[3,4,6-trideoxy-3-(dimethylamino)-β-D-xylo-hexopyranosy]oxy]-1-oxa-7-azacyclopentadecan-15-one]
12 | 1 | 0.5 ug/mi | 0.5 | 2 | 0.25 | CCCCN(C)C[C@]1(O)[C@H](C)O[C@@H](O[C@H]2[C@H](C)[C@@H](O[C@@H]3O[C@H](C)C[C@H](N(C)C)[C@H]3O)[C@](C)(O)C[C@@H](C)NC[C@H](C)[C@@H](O)[C@](C)(O)[C@@H](CC)OC(=O)[C@@H]2C)C[C@@]1(C)OC [syzx-98, (2R,3S,4R,5S,8R,10R,11R,12S,13S,14R)-13-[(2,6-dideoxy-3-C-methyl-3-O-methyl-4-C-[(N-methyl-butyl-amino)-methyl]-α-L-ribopyranosyl)oxy]-2-ethyl-3,4,10-trihydroxy-3,5,8,10,12,14-hexamethyl-11-[[3,4,6-trideoxy-3-(dimethylamino)-β-D-xylo-hexopyranosy]oxy]-1-oxa-7-azacyclopentadecan-15-one]
13 | 4 | 128 ug/mi | 4 | 8 | 2 | CC[C@H]1OC(=O)[C@H](C)[C@@H](O[C@H]2C[C@@](C)(OC)[C@](O)(CNc3ccc4ncccc4c3)[C@H](C)O2)[C@H](C)[C@@H](O[C@@H]2O[C@H](C)C[C@H](N(C)C)[C@H]2O)[C@](C)(O)C[C@@H](C)NC[C@H](C)[C@@H](O)[C@]1(C)O [syzx-99, (2R,3S,4R,5S,8R,10R,11R,12S,13S,14R)-13-[(2,6-dideoxy-3-C-methyl-3-O-methyl-4-C-[(quinolin-6-yl-amino)-methyl]-α-L-ribopyranosyl)oxy]-2-ethyl-3,4,10-trihydroxy-3,5,8,10,12,14-hexamethyl-11-[[3,4,6-trideoxy-3-(dimethylamino)-β-D-xylo-hexopyranosy]oxy]-1-oxo-7-azacyclopentadecan-15-one]
14 | 1 | 1 ug/mi | 2 | 0.5 | 2 | CC[C@H]1OC(=O)[C@H](C)[C@@H](O[C@H]2C[C@@](C)(OC)[C@](O)(CNC(C)C(C)(C)C)[C@H](C)O2)[C@H](C)[C@@H](O[C@@H]2O[C@H](C)C[C@H](N(C)C)[C@H]2O)[C@](C)(O)C[C@@H](C)NC[C@H](C)[C@@H](O)[C@]1(C)O (stereo partly drawn) [syzx-100, (2R,3S,4R,5S,8R,10R,11R,12S,13S,14R)-13-[(2,6-dideoxy-3-C-methyl-3-O-methyl-4-C-[(1,2,2-trimethyl-propylamino)-methyl]-α-L-ribopyranosyl)oxy]-2-ethyl-3,4,10-trihydroxy-3,5,8,10,12,14-hexamethyl-11-[[3,4,6-trideoxy-3-(dimethylamino)-β-D-xylo-hexopyranosy]oxy]-1-oxa-7-azacyclopentadecan-15-one]
